Patent US5962284A, “Acrylamidase enzymes” (Ciba Specialty Chemicals Water Treatments Limited, priority 1997, dated 1999)

Key:
[1] = test system: acrylamidase produced by Rhodococcus erythropolis NCIMB 40889; assay: Adipic acid activity assay (amidase activity at pH 4 with added adipic acid); type: biochemical; conditions: pH 4, 50 mM acrylamide, 30° C.
Excerpt: (§1) For measurement of Km (see below) the same conditions can be used, except that the acrylamide concentration is of course varied. One unit (U) of amidase activity hydrolyses 1 micromole of acrylamido per minute under the above conditions. The specific activity is the amount of units of activity present per dry gram of cell material. The relative activity is the % activity relative to activity at ph 7.
In this specification, comparison of acrylamidase activity in the presence of adipic acid and in the absence of adipic acid is measured by the following adipic acid activity assay:
To an assay mixture at pH 4 as described for measurement of activity at pH 4 and pH 7 is added adipic acid to give the concentrations required. Cell suspension is then added to the assay mixture. The amidase activity of each suspension is then measured. The relative activity is % activity relative to activity in the absence of adipic acid.

[2] = test system: acrylamidase produced by Rhodococcus erythropolis NCIMB 40889; conditions: read-out: Km for acrylamide; pH 4.0, 30° C., cell suspension
Excerpt: as §1
(§2) In this specification, Km is Km for acrylamide measured at pH 4.0.

[3] = test system: acrylamidase produced by Rhodococcus species NCIMB 40755; conditions: read-out: Km for acrylamide; pH 4.0, 30° C., cell suspension
Excerpt: as §1, §2

O=C(O)CCCCC(=O)O [Adipic Acid, adipic acid]
Relative Activity (%) relative to activity in the absence of adipic acid ([1]; 5 mM adipic acid): 95%
Relative Activity (%) relative to activity in the absence of adipic acid ([1]; 10 mM adipic acid): 69%
Relative Activity (%) relative to activity in the absence of adipic acid ([1]; 15 mM adipic acid): 38%
Relative Activity (%) relative to activity in the absence of adipic acid ([1]; 22.5 mM adipic acid): 30%
Relative Activity (%) relative to activity in the absence of adipic acid ([1]; 25 mM adipic acid): 29%
Relative Activity (%) relative to activity in the absence of adipic acid ([1]; 50 mM adipic acid): 12%

C=CC(N)=O [acrylamide]
Km [2]: 11.6 mM
Km [3]: 6 mM
